Measurements reported in patent US20250109343A1, “CORROSION INHIBITOR” (INNOSPEC LIMITED, priority 2022, published 2025).

Tests used:
[1] = Linear Polarisation Resistance (LPR) Test, Example 30, synthetic brine composition 1 or 2
[2] = LPR test of Example 31, variety of brines and brine/depolarised kerosene fluids
Procedure: The LPR test was carried out using the corrosion inhibitor of Example 1. The LPR test was carried out using the same conditions as the LPR test of Example 30 except for the composition of the corrosive fluid, the temperature, and the dose of the corrosion inhibitor.

[3] = brine composition 1, dose 40 ppm of product, one addition, time 19.9-20.1 hr, 60° C., constant CO2 sparge
[4] = brine composition 2, dose 40* ppm, four additions each of 10 ppm, time 25.3-28.8 hr, 60° C., constant CO2 sparge
[5] = Test 1: brine composition 1 (Table 6), 60 ° C., dose 50 ppm, 4 hours
[6] = Test 3: brine composition 3 and depolarised kerosene 90:10 volume ratio, 82 ° C., dose 60 ppm, 5 hours
[7] = Test 4: brine composition 4 and depolarised kerosene 90:10 volume ratio, 82 ° C., dose 60 ppm, 5 hours
[8] = Test 5: brine composition 5 and depolarised kerosene 90:10 volume ratio, 82 ° C., dose 60 ppm, 5 hours
[9] = Test 6: brine composition 6 and depolarised kerosene 90:10 volume ratio, 82 ° C., dose 60 ppm, 5 hours

| Substance | Corrosion protection [1] | Corrosion rate [1] | other results |
| --- | --- | --- | --- |
| disodium 2-octen-1-ylsuccinate [Example 5] | – | – | Corrosion protection [1, 3]: 89%; Corrosion rate [1, 3]: 0.46 mmpy |
| potassium PEG200 2-octen-1-yI succinate [Example 21] | – | – | Corrosion protection [1, 4]: 59%; Corrosion rate [1, 4]: 2.24 mmpy |
| sodium 1,6-hexanediol dodecenyl succinate [Example 15] | 41% | 1.68 mmpy | – |
| sodium 1-hexanol dodecenyl succinate [Example 10] | 92% | 0.29 mmpy | – |
| sodium 2-ethyl-1,3-hexanediol dodecenyl succinate [Example 9] | 51% | 2.02 mmpy | – |
| sodium 3-dimethylaminopropylamine dodecenyl succinamide [Example 13] | 46% | 1.73 mmpy | – |
| sodium PEG200 2-octen-1-ylsuccinate [Example 1] | 99% | 0.03 mmpy | Corrosion protection [2, 5]: 96%; Corrosion rate [2, 5]: 0.1320 mmpy; Corrosion protection ([2]; Test 2: brine composition 2 (Table 6), 60 ° C., dose 50 ppm, 4 hours): 96%; Corrosion protection [2, 6]: 99%; Corrosion rate [2, 6]: 0.0358 mmpy; Corrosion protection [2, 7]: 98%; Corrosion rate [2, 7]: 0.0833 mmpy; Corrosion protection [2, 8]: 96%; Corrosion rate [2, 8]: 0.1387 mmpy; Corrosion protection [2, 9]: 95%; Corrosion rate [2, 9]: 0.1646 mmpy; Corrosion inhibition, result in words ([2]; variety of brines and brine/hydrocarbon emulsions): effective corrosion inhibitor |
| sodium benzyl alcohol dodecenyl succinate [Example 8] | 96% | 0.14 mmpy | – |
| sodium diethanolamine dodecenylsuccinamide [Example 4] | 99% | 0.06 mmpy | – |
| sodium dodecanol phthalate [Example 26] | 99% | – | – |
| sodium furfuryl alcohol dodecenyl succinic anhydride [Example 28] | 99% | 0.04 mmpy | – |
| triethanolamine PEG200 2-octen-1-yl succinate [Example 22] | 68% | 2.44 mmpy | – |
